# Measured values published in ChEMBL document CHEMBL4431361, “Development of indole sulfonamides as cannabinoid receptor negative allosteric modulators” (Bioorg Med Chem Lett, 2016).
# How the values were obtained:
# [1] = Half life in rat liver microsomes at 3 uM in presence of NADPH by LC-MS/MS analysis; format: ADME, Microsome
# [2] = biological target: Cannabinoid receptor 1 (Homo sapiens, UniProt P21554); assay: Negative allosteric modulation of human CB1 receptor expressed in CHO-K1 cells assessed as inhibition of CP55940 induced beta arrestin recruitment preincubated for 30 mins followed by addition of CP55940 for 90 mins by chemiluminescence assay; format: functional, cell-based
# [3] = Half life in human liver microsomes at 3 uM in presence of NADPH by LC-MS/MS analysis; format: ADME, Microsome
# [4] = Ratio of drug level in NMRI mouse brain to blood after 2 hrs; format: ADME, tissue-based
# [5] = Apparent permeability of the compound at 10 uM after 5 hrs by PAMPA; format: ADME
# [6] = Ratio of drug level in […] brain to blood at 30mg/kg, ip after 1 hr by HPLC/MS/MS method; format: ADME, organism-based
# Sequence of Cannabinoid receptor 1 (P21554 whole entry): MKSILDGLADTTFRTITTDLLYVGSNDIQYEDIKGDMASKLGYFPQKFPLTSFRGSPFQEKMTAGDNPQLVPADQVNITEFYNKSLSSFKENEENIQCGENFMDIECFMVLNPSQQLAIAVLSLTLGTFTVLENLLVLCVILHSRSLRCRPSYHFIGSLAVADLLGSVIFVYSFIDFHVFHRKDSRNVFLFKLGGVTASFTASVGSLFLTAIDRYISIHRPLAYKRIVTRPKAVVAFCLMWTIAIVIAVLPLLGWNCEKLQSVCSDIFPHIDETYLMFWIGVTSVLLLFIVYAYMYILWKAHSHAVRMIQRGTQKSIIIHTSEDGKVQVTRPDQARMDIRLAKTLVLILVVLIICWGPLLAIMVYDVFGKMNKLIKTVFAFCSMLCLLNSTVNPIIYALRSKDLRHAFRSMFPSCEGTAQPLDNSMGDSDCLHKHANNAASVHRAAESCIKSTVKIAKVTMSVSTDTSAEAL
SMILES,IC50 [2] [nM],other results
CCc1c(S(=O)(=O)NCCc2ccc(N3CCCCC3)cc2)[nH]c2ccc(Cl)cc12,120,half-life at 3 µM [3]: 14 min
Nc1ccc(-c2ccc(CNS(=O)(=O)c3cc4cc(Cl)ccc4[nH]3)cc2)cn1,85,–
NC(=O)c1cccc(-c2ccc(CNS(=O)(=O)c3cc4ccccc4[nH]3)cc2)c1,300,–
Cc1c(S(=O)(=O)NCc2ccccn2)[nH]c2ccccc12,> 1000,–
Cc1c(S(=O)(=O)NCc2ccc(Cl)c(Cl)c2)[nH]c2ccccc12,800,–
COc1ccc2[nH]c(S(=O)(=O)NCc3ccc(-c4ccc(CO)cc4)cc3)cc2c1,112,–
COc1ccc(CNS(=O)(=O)c2[nH]c3ccc(Cl)cc3c2C)cc1,500,–
Cc1c(S(=O)(=O)NCc2cccnc2)[nH]c2ccccc12,> 1000,–
CCc1c(S(=O)(=O)NCCc2ccc(N3CCOCC3)cc2)[nH]c2ccc(Cl)cc12,500,half-life at 3 µM [3]: 10 min
Cc1c(S(=O)(=O)NCCc2ccc(N3CCOCC3)cc2)[nH]c2ccccc12,> 1000,–
O=C(O)c1ccc(-c2ccc(CNS(=O)(=O)c3cc4ccccc4[nH]3)cc2)cc1,> 1000,–
Cc1c(S(=O)(=O)NCc2ccc(Cl)cc2)[nH]c2ccccc12,400,–
Cc1c(S(=O)(=O)NCCc2ccccc2)[nH]c2ccccc12,200 to 1000,half-life at 3 µM [3]: 3 min
Cc1ccc(CNS(=O)(=O)c2[nH]c3ccccc3c2C)cc1,200,half-life at 3 µM [3]: 7 min
Cc1c(S(=O)(=O)NCc2ccc(C(F)(F)F)cc2)[nH]c2ccccc12,250,–
Cc1c(S(=O)(=O)NCC2CCCCC2)[nH]c2ccccc12,> 1000,–
Cc1cc(CNS(=O)(=O)c2cc3cc(Cl)ccc3[nH]2)ccc1-c1ccc(F)cc1,> 1000,–

# These reach a lower IC50 [2]. Values come first.
IC50 [2] [nM],SMILES,other results
12,O=S(=O)(NCc1ccc(-c2ccc(F)cc2)cc1)c1cc2cc(Br)ccc2[nH]1,half-life at 3 µM [1]: 130 min
4,O=S(=O)(NCc1ccc(-c2ccc(F)cc2F)cn1)c1cc2cc(Br)ccc2[nH]1,half-life at 3 µM [3]: 53 min; half-life at 3 µM [1]: 33 min
2,O=S(=O)(NCc1ccc(-c2ccccc2)cc1)c1cc2ccccc2[nH]1,–
2,COc1ccc(-c2ccc(CNS(=O)(=O)c3cc4ccccc4[nH]3)cc2)cc1,–
9,O=S(=O)(NCc1ccc(-c2ccc(F)cc2)cn1)c1cc2cc(Br)ccc2[nH]1,half-life at 3 µM [1]: 25 min
5,O=S(=O)(NCc1ccc(-c2ccc(F)nc2)cc1)c1cc2ccc(Cl)cc2[nH]1,half-life at 3 µM [3]: 22 min; half-life at 3 µM [1]: 23 min; Kp at 2 h [4]: 2.7
2,CCc1c(C(=O)NCCc2ccc(N3CCCCC3)cc2)[nH]c2ccc(Cl)cc12,"Papp at 5 h, 10 µM [5]: 1.23 ×10⁻⁶ cm/s; Kp at 1 h [6]: 1.1"
10,COCc1c(S(=O)(=O)NCc2ccc(-c3ccccc3)cc2)[nH]c2ccccc12,–
12,O=S(=O)(NCc1ccc(-c2ccccc2)cc1)c1[nH]c2ccccc2c1CO,–
7,O=S(=O)(NCc1ccc(-c2cccnc2)cc1)c1cc2ccccc2[nH]1,half-life at 3 µM [1]: < 15 min
22,COc1ccc(-c2ccc(CNS(=O)(=O)c3cc4ccccc4[nH]3)cc2)c(OC)c1,–
41,CC(NS(=O)(=O)c1cc2ccccc2[nH]1)c1ccc(-c2ccc(F)cc2)cc1 (stereo not given),–
40,COc1ccc2[nH]c(S(=O)(=O)NCc3ccc(-c4ccc(OC(F)(F)F)cc4)cc3F)cc2c1,half-life at 3 µM [1]: < 15 min
